These results are taken from patent publication US20100028467A1, “Composition Comprising Ginsenosides Isolated From The Extract Of Processed Ginseng For Preventing And Treating Thrombotic Disease” (Ginseng Science, Inc., priority 2008, published 2010).

Where two headings read alike, the source gives them in different places.

Assay [1] has as its system AA-induced platelet aggregation. Nature of the assay: Platelet aggregation inhibition test (aggregometer), AA-induced. The class given is cell-based, rat. Conditions: for IC50: AA 30˜60×10^−6M with near-threshold collagen, rat adjusted PRP; for fold stronger activity than ASA on AA-induced aggregation: relative to ASA. On the procedure: (§1) 7 weeks-year old Sprgue-Dawley male white rat (240±20 g, Orient Bio Co. Ltd) was anesthetized with diethyl ether. The blood of rat was collected from heart using a syringe containing 2.2% sodium citrate (10% v/v) and centrifuged for 10 mins with the speed of 200×g and the supernatant (upper layer) of buffy coat was collected using by serum separator (Mediland Co. Ltd, 10×250 mm) to afford platelet rich plasma containing supematant(PRP). The residue was centrifuged at 1500×g for 15 min to obtain the platelet poor plasma (PPP) and the PRP was diluted with PPP to adjust the final platelet number in PRP to 4.0-4.5×10^8/ml. Platelet number was counted using a platelet counter (Excell 18 MWI, DANAM Electronics, USA) disclosed in the literature (Lee Y. Y. et al., Anti-platelet Aggregating and anti-oxidative activities of 11-O-(4′-O-Methylgalloy)-bergenin, A new compound isolated from Crassul cv. “Himaturi”, Planta Med., 71, pp 776-777).
(§2) An aliquote (500 μl) of platelet count adjusted PRP was preincubated for 3 minutes at 37° C. in an aggregometer (490-X optical aggregometer, Chrono-Log Corp, USA) with constant stirring at 1,000 rpm. 5 μl of ginsenoside solution was added followed by successive addition of aggregation inducing agent (5 μl) at an intervals of 30 s to incubate for 30 sec with stirring at the speed of 1100 rpm. Arachidonic acid (AA, Sigma, A8798), Thromboxane A2 (U46619, Sigma, D8174) and collagen (Chrono-Log, No. 385) were used as aggregation inducing agents at the concentration of 30˜60×10^−6M (AA), 2˜4×10^−6M (U46619) and 2˜4×10^−6 g/ml (collagen) respectively. Aspirin was used as a positive control. […] The aggregation induced by AA and U46619 was determined in presence of a near-threshold concentration (1.0-1.4 μg/ml and 0.8-1.2 μg/ml, respectively) of collagen that can only induce change in platelet shape but no aggregation.
(§3) Inhibition (%) was calculated as follows: Inhibition (%)=(1−maximal aggregation of sample-treated aPRP/maximal aggregation of vehicle-treated aPRP)×100 All experiments were performed in tripticates. IC50 values were calculated from the linear regression of the plot of mean values (n=3) of percent inhibition versus concentration of corresponding ginsenoside. Sigma Plot software was used for graphing. Regression equations were calculated using Regression Wizard from the Sigma Plot equation library.

The subject of assay [2] is human plasma coagulation. Kind of assay: Anti-coagulation test, PT (prothrombin time). The class given is biochemical. On the procedure: (§4) The inhibitory effect of the ginsenosides prepared in Examples on human plasma coagulation was determined by aPTT (activated partial thromboplastin time), PT(prothrombin time) and TT(thrombin time) tests.
(§5) Fresh freeze plasma was procured from the blood bank of Seoul National University Hospital (www.snuh.org) to use in the Anti-coagulation Test in human plasma.
(§6) To determine PT and TT, 0.1 ml plasma treated with test samples in the case of PT and 0.2 ml plasma treated with test samples in the case of TT was incubated at 37° C. for 2 mins respectively. 2 ml of PT reagent (Diagnostica Stago, Cat. 0605) and TT reagent (Diagnostica Stago, Cat. 0611) were added thereto to incubate for 3 mins. The coagulation time from the starting time of plasma coagulation with 0.1 ml of 20 mM calcium chloride solution to the ending time of plasma agglutination was determined using by fibrometer (BBL Fibrosystems, Fischer Scientific, USA).

The test system of assay [3] is human plasma coagulation. Kind of assay: Anti-coagulation test, TT (thrombin time). The class given is biochemical. On the procedure:
as §4, §5, §6

Assay [4] has as its system U46619 (thromboxane A2 mimetic drug)-induced platelet aggregation. Nature of the assay: Platelet aggregation inhibition test (aggregometer), U46619-induced. The class given is cell-based, rat. The following applies: for IC50: U46619 2˜4×10^−6M with near-threshold collagen, rat adjusted PRP. On the procedure: as §1, §2, §3
Assay [5] deals with collagen-induced platelet aggregation. Nature of the assay: Platelet aggregation inhibition test (aggregometer), collagen-induced. The class given is cell-based, rat. Conditions: for IC50: collagen 2˜4×10^−6 g/ml, rat adjusted PRP. On the procedure:
as §1, §2, §3

Assay [6] concerns human plasma coagulation. Nature of the assay: Anti-coagulation test, aPTT (activated partial thromboplastin time). The class given is biochemical. On the procedure:
as §4, §5
To determine aPTT, 0.1 ml plasma treated with test samples was incubated at 37° C. for 2 mins and aPTT reagent (Diagnostica Stago, Cat. 0595) was added thereto to incubate for 3 mins. The coagulation time from the starting time of plasma coagulation with 0.1 ml of 20 mM calcium chloride solution to the ending time of plasma agglutination was determined using by fibrometer (BBL Fibrosystems, Fischer Scientific, USA).

Assay [7] relates to rat platelet aggregation induced by collagen. Kind of assay: Modified smear method, collagen-induced platelet aggregation in PRP. The class given is cell-based. Details: key: ++: full aggregation of platelet; +: intermediate aggregation of platelet; ±: slight aggregation of platelet; −: no aggregation of platelet. The following applies: collagen 2 × 10^−5 g/ml. On the procedure:
(§7) The inhibitory effect of the ginsenosides prepared in Examples on the rat platelet aggregation was determined according to the procedure disclosed in the literature (Yun-Choi et al., Modified smear method for screening potential inhibitors of platelet aggregation from plant sources, J. Nat. Prod., 48(3), pp 363-370, 1985).
(§8) The blood of 7 weeks-year old Sprgue-Dawley rat (male, 240±20 g, Orient Bio Co. Ltd) was collected using a syringe containing 2.2% sodium citrate (10% v/v) and centrifuged for 10 mins with the speed of 200× g to collect platelet rich plasma containing supernatant(PRP). 0.16 ml of PRP was treated with 0.2 ml of SG, SGbu-1, and SGBu-2 as test samples and 0.2 ml of solutions of arachidonic acid (Sigma, A8798), ADP (Sigma, A4386) and collagen (Chrono-Log, No. 385) as platelet aggregation inducers (control group) to incubate for 4 mins at 37° C.
(§9) Thin Smear prepared from step 1-1 was stained and the intensity of platelet aggregation result was observed by microscopy method. The intensity of platelet aggregation result was divided into […] categories, i.e., “++”: full aggregation of platelet; “+”: intermediate aggregation of platelet; “±”: slight aggregation of platelet; “−”: no aggregation of platelet.

Assay [8] concerns rat platelet aggregation induced by ADP. Nature of the assay: Modified smear method, ADP-induced platelet aggregation in PRP. The class given is cell-based. Set-up: key: ++: full aggregation of platelet; +: intermediate aggregation of platelet; ±: slight aggregation of platelet; −: no aggregation of platelet. Conditions: ADP 3.2 × 10^−6 M. On the procedure:
as §7, §8, §9

Assay [9] concerns rat platelet aggregation induced by arachidonic acid. Nature of the assay: Modified smear method, arachidonic acid-induced platelet aggregation in PRP. The class given is cell-based. Set-up: key: ++: full aggregation of platelet; +: intermediate aggregation of platelet; ±: slight aggregation of platelet; −: no aggregation of platelet. The following applies: AA 4 × 10^−4 M. On the procedure:
as §7, §8, §9

Take `CC(C)=CCC[C@](C)(O)[C@H]1CC[C@]2(C)[C@@H]1[C@H](O)C[C@@H]1[C@@]3(C)CC[C@H](O[C@@H]4O[C@H](CO)[C@@H](O)[C@H](O)[C@H]4O[C@@H]4O[C@H](CO)[C@@H](O)[C@H](O)[C@H]4O)C(C)(C)[C@@H]3CC[C@]12C` (racemic) [Racemic ginsenoside Rg3, ginsenoside Rg3]: the “inhibitory effect on AA-induced platelet aggregation (in words)” value in [1] is given as “exhibited inhibitory effect”.
As to `CC(C)=CCC[C@](C)(O)[C@H]1CC[C@]2(C)[C@@H]1[C@H](O)C[C@@H]1[C@@]3(C)CC[C@H](O[C@@H]4O[C@H](CO)[C@@H](O)[C@H](O)[C@H]4O[C@@H]4O[C@H](CO)[C@@H](O)[C@H](O)[C@H]4O)C(C)(C)[C@@H]3CC[C@]12C` [20(R)-ginsenosides Rg3, 20(R)-ginsenoside Rg3], the PT in [2] amounted to 24.1 s. The molecule also yielded a TT in assay [3] of 13.6 s. Also, the “inhibitory effect on U46619-induced platelet aggregation (in words)” value in assay [4] is on record as “inhibited”. The figures for the IC50 in [4], in assay [5] and in assay [1] were 357 µM, 492 µM and above 100 µM, respectively. For the same molecule, the entries for the “inhibitory effect on collagen-induced platelet aggregation (in words)” value in assay [5] and in [5] (listed as 20(R)-Rg3) were “inhibited” and “comparable to that of ASA”, respectively. Moreover, the aPTT in assay [6] was determined as 50.3 s. For the same molecule, the “inhibitory effect on AA-induced platelet aggregation (in words)” value in [1] (listed as 20(R)-Rg3) is on record as “only poor platelet antiaggregating activity”.
With `CC(C)=CCC[C@](C)(O)[C@H]1CC[C@]2(C)[C@@H]1[C@H](O)C[C@@H]1[C@@]3(C)CC[C@H](O[C@@H]4O[C@H](CO)[C@@H](O)[C@H](O)[C@H]4O[C@@H]4O[C@H](CO)[C@@H](O)[C@H](O)[C@H]4O)C(C)(C)[C@@H]3CC[C@]12C` [20(S)-ginsenosides Rg3, 20(S)-ginsenoside Rg3], in assay [2], the PT amounted to 23.5 s. The TT in assay [3] was 12.9 s. In addition, the values for the IC50 in assay [4], in assay [5] and in assay [1] were above 700 µM, above 700 µM and 53 µM, respectively. In [6], this molecule showed an aPTT of 57.2 s. For the same molecule, the “inhibitory effect on AA-induced platelet aggregation (in words)” value in assay [1] was “relatively strong inhibitory effect”.
In the case of `CC(=O)Oc1ccccc1C(=O)O` [Aspirin(ASP), Aspirin], the figures for the IC50 in [4] (Platelet), in assay [5] (Platelet) and in [1] (Platelet) were 508 µM, 588 µM and 66 µM, respectively. The “intensity of platelet aggregation, inducer collagen” value in [7] (1.4 × 10^−3 M Aspirin) was “−”. Also, in [7] (Aspirin (2.8 × 10^−3 M)), the “intensity of platelet aggregation, inducer collagen (value in brackets)” value is reported as “±”. Also, in assay [8] (2.8 × 10^−3 M Aspirin), the “intensity of platelet aggregation, inducer ADP” value is recorded as “−”. Moreover, the “intensity of platelet aggregation, inducer ADP (value in brackets)” value in [8] (Aspirin (5.5 × 10^−3 M)) is reported as “±”. For the same molecule, the “intensity of platelet aggregation, inducer AA” value in assay [9] (0.7 × 10^−3 M Aspirin) is “−”. Further, in [9] (Aspirin (1.4 × 10^−3 M)), the “intensity of platelet aggregation, inducer AA (value in brackets)” value is “±”.
Molecule `CC(C)=CC/C=C(\C)[C@H]1CC[C@]2(C)[C@@H]1[C@H](O)C[C@@H]1[C@@]3(C)CC[C@H](O[C@@H]4O[C@H](CO)[C@@H](O)[C@H](O)[C@H]4O[C@@H]4O[C@H](CO)[C@@H](O)[C@H](O)[C@H]4O)C(C)(C)[C@@H]3CC[C@]12C` [ginsenoside Rg5] yielded a PT in assay [2] of 28.1 s. The TT in assay [3] was 14.1 s. In assay [4], the IC50 – broadly, the concentration that gives 50% inhibition – worked out at 102 µM. For the same molecule, in assay [5], the “inhibitory effect on collagen-induced platelet aggregation (in words)” value is recorded as “comparable to that of ASA” and the IC50 stood at 409 µM. Moreover, in assay [6], the aPTT was determined as 66.0 s. Also, in assay [1], the IC50 turned out to be 8 µM and the “fold stronger activity than ASA on AA-induced aggregation” value was determined as 8 fold.
`C=C(CCC=C(C)C)[C@H]1CC[C@]2(C)[C@@H]1[C@H](O)C[C@@H]1[C@@]3(C)CC[C@H](O[C@@H]4O[C@H](CO)[C@@H](O)[C@H](O)[C@H]4O[C@@H]4O[C@H](CO)[C@@H](O)[C@H](O)[C@H]4O)C(C)(C)[C@@H]3CC[C@]12C` [ginsenoside Rk1]: the PT in assay [2] was determined as 29.8 s. Also, the TT in [3] came to 14.3 s. In assay [4], the “inhibitory effect on U46619-induced platelet aggregation (in words)” value was “strongest inhibitory effect among four tested compounds” and the IC50 came to 78 µM. Moreover, in [5], the “inhibitory effect on collagen-induced platelet aggregation (in words)” value is listed as “strongest inhibitory effect among four tested compounds” and the IC50 was 197 µM. Besides, the “fold higher activity than ASA on collagen-induced aggregation” value in assay [5] (relative to ASA) is 3 fold. Besides, the aPTT in assay [6] was found to be 54.5 s. Moreover, in [1], the “inhibitory effect on AA-induced platelet aggregation (in words)” value is listed as “strongest inhibitory effect among four tested compounds”, half-maximal inhibition (IC50) required 3 µM and the “fold stronger activity than ASA on AA-induced aggregation” value stood at 22 fold.
